Data published in ChEMBL document CHEMBL1201862, “PubChem BioAssay data set” (2004).
Active and inactive are the calls of the source.

Tests used:
Beta-galactosidase = Beta-galactosidase (Escherichia coli, UniProt Q8VNN2); assay: Dose response counterscreen for EBI2 assay utilizing the enzyme, b-galactosidase.; format: functional
[1] = Luminescence Cell-Based Dose Confirmation HTS to Identify Activators of 5'UTR Stem-Loop Driven Alpha-Synuclein mRNA Translation in H4 Neuroglioblastoma Cells. [Related pubchem assays: 1829 (Project Summary), 1814 (Primary HTS)]; format: functional
[2] = Luminescence Cell-Based Dose Response HTS to Identify Activators of Luciferase Translation or Activity in H4 […] Cells. [Related pubchem assays: 1829 (Project Summary), 1814 (Primary HTS)]; format: functional
H4 = assay: Luminescence Cell-Based Dose Response HTS to Identify Activators of 5'UTR Stem-Loop Driven Prion Protein mRNA Translation in H4 Neuroglioblastoma Cells. [Related pubchem assays: 1829 (Project Summary), 1814 (Primary HTS)]; format: functional; conditions: Homo sapiens
[3] = target: T1, Probable nicotinate-nucleotide adenylyltransferase (Staphylococcus aureus (strain N315), UniProt P65502); format: functional, Staphylococcus aureus subsp. aureus N315;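 as to IC50 Mean: confirmatory dose-response retesting of NadD inhibitor hits first found in an ultra-high-throughput screen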
[4] = target: T1, Probable nicotinate-nucleotide adenylyltransferase; format: functional, Staphylococcus aureus subsp. aureus N315; conditions: read-out: IC50_Mean
[5] = target: T2, Oxysterols receptor LXR-beta (Homo sapiens, UniProt P55055); format: functional, cell-based;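 also: agonist activity at LXR measured by a cell-based luminescence readout across a dose range, run as a counterscreen for daf-12 agonists; HEK293 cells with Gal4-LXR fusion and GAL4-driven luciferase reporter; potency for activation of Gal4-LXR reporter so compounds are agonists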
T2 sequence (P55055 whole entry): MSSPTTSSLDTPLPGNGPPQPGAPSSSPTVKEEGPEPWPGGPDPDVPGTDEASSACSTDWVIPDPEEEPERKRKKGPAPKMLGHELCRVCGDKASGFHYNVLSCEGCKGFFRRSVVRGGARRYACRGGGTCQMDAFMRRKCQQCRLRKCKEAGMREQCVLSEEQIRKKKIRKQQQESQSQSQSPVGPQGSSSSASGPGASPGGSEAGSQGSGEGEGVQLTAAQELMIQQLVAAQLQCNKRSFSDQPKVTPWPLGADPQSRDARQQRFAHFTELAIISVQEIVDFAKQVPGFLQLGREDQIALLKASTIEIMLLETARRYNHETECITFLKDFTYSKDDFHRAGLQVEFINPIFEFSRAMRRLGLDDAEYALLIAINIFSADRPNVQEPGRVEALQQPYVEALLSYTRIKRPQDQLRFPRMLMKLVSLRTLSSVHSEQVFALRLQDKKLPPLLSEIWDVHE

Major prion protein = Major prion protein (Homo sapiens, UniProt P04156); format: functional, cell-based
cells [6] = assay: cells
[7] = target: Fructose-bisphosphate aldolase (Mycobacterium tuberculosis, UniProt P9WQA3); assay: Fluorescence-based biochemical high throughput dose response assay for inhibitors of the fructose-bisphosphate aldolase (FBA) of M. tuberculosis.; format: functional
[8] = target: T3, Sphingosine 1-phosphate receptor 4 (Homo sapiens, UniProt O95977); assay: Fluorescence dose response cell-based high throughput screening assay for antagonists of the Sphingosine 1-Phosphate Receptor 4 (S1P4). [Related pubchem assays: 1524 (Confirmation in triplicates.), 1510 (Primary screen.)]; format: functional
T3 sequence (O95977 whole entry): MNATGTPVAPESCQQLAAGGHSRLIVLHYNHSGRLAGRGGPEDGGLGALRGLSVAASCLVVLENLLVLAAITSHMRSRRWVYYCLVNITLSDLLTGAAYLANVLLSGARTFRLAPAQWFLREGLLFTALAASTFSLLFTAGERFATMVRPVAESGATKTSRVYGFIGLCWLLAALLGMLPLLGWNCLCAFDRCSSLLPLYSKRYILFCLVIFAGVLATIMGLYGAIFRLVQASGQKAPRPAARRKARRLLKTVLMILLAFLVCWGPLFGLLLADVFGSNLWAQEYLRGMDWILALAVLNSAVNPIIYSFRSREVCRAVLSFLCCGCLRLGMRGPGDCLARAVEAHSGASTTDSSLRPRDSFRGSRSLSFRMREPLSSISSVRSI

[9] = target: Sphingosine 1-phosphate receptor 1 (Homo sapiens, UniProt P21453); format: functional;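 also: Tango beta-arrestin reporter U2OS cells stimulated with S1P near its EC80; inhibitor potency meaning antagonism of receptor activation by the natural agonist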
[10] = target: Dual specificity tyrosine-phosphorylation-regulated kinase 1A (Rattus norvegicus, UniProt Q63470); format: biochemical, Homo sapiens
Melanocortin receptor 4 = Melanocortin receptor 4 (Homo sapiens, UniProt P32245); assay: inhibitors of MC4R cAMP signaling – cell-based, TR-FRET, biased antagonists, dose response (AID 602298); format: functional;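 also: antagonist potency against agonist-stimulated cAMP production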
[11] = target: T4, Polyadenylate-binding protein 1 (Homo sapiens, UniProt P11940); assay: MLLE binding blockers, Cy5 peptide tracer – biochemical, fluorescence polarization, Cy5-PAM2 peptide, secondary, miRNA deadenylation inhibitor project, dose response (AID 602260); format: functional; conditions: read-out: IC50_Mean
[12] = target: T4, Polyadenylate-binding protein 1; assay: MLLE domain peptide-binding blockers, IC50 – biochemical, fluorescence polarization, FITC-PAM2 peptide, dose response (AID 602259); format: functional; conditions: read-out: IC50_Mean
[13] = cAMP pathway inhibition in counterscreen cell line – TR-FRET cAMP detection, counter-screen for MC4R biased antagonist project, dose response (AID 602305); format: functional, cell-based;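 also: U2OS cells stimulated with forskolin near its EC80 as the cAMP inducer; potency is for inhibition of forskolin-stimulated cAMP signaling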
[14] = blockers of HIV-1 envelope-mediated cell-cell fusion – cherry-pick, dose response (AID 652057); format: functional, cell-based
Galanin receptor type 3 = Galanin receptor type 3 (Homo sapiens, UniProt O60755); assay: Fluorescence-based cell-based primary high throughput dose response assay to identify antagonists of the Galanin Receptor 3 (GalR3).; format: functional
cells [15] = format: functional, cell-based; conditions: HEK-CNG
[16] = viability loss in CEM21 cells – cell-based, CellTiter-Glo luminescence, cherry-picked, cytotoxicity control for viral fusion inhibitor project, dose response (AID 652042); format: functional;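 also: potency for signal decrease meaning cytotoxicity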
[17] = blockers of HIV-1 ZM109 envelope-driven cell-cell fusion – HeLa effector, CEM target cells, luciferase, cherry-pick, dose response (AID 652058); format: functional, cell-based;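 also: luciferase signal from HIV-1 Env mediated cell-cell fusion of effector and target cells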
Paired box protein Pax-8 = Paired box protein Pax-8 (Homo sapiens, UniProt Q06710); assay: PAX8 transcriptional activity inhibition in RMG-I – RMG-I cells, luciferase, cherry-pick, dose response (AID 687027); format: functional, cell-based;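 also: luciferase reporter driven by Pax8 target thyroperoxidase promoter measured by SteadyGlo luminescence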
[18] = off-target signal loss in HeLa-CEM21 co-culture – HeLa F-luc CTL cells, cherry-picked, counter-screen for HIV-1 Env fusion inhibitor project, dose response (AID 652040); format: functional, cell-based;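 also: potency for signal decrease marking cytotoxic or nonspecific inhibition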
[19] = HIV-1 AD8 envelope cell-cell fusion blockers – cherry-pick, dose response (AID 652062); format: functional, cell-based;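 also: luciferase signal from cell-cell fusion driven by HIV-1 clade B AD8 Env; potency is for inhibitors of fusion seen as a drop in luminescence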
[20] = target: Long-chain-fatty-acid--AMP ligase FadD28 (Mycobacterium tuberculosis, UniProt P9WQ59); assay: Fluorescence polarization aasay to screen for inhibitors that compete for the binding of FadD28 to a bisubstrate Measured in Biochemical System Using Plate Reader - 2147-01_Inhibitor_Dose_CherryPick_Activity.; format: functional, Mycobacterium tuberculosis H37Rv
[21] = intracellular Trypanosoma cruzi inhibitors in host cells – cell-based, plate reader, cherry-pick samples, set 3, dose response (AID 651818); format: functional;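 also: compounds incubated with infected cells for about four days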
[22] = T. cruzi growth inhibition in host cells, dose response, cell-based, plate reader, dry powder, set 2 (AID 652275); format: functional
[23] = anti-trypanosomal activity in BESM host cells – imaging, CA-I/72 strain, bovine embryo skeletal muscle, dry powder, dose response (AID 651885); format: functional, cell-based
[24] = target: T5, Sentrin-specific protease 1 (Homo sapiens, UniProt Q9P0U3); assay: SENP1 catalytic domain blockers, concentration series – biochemical, kinetic FRET, dose response (AID 651697); format: functional; conditions: read-out: IC50_Mean
T5 sequence (Q9P0U3 whole entry): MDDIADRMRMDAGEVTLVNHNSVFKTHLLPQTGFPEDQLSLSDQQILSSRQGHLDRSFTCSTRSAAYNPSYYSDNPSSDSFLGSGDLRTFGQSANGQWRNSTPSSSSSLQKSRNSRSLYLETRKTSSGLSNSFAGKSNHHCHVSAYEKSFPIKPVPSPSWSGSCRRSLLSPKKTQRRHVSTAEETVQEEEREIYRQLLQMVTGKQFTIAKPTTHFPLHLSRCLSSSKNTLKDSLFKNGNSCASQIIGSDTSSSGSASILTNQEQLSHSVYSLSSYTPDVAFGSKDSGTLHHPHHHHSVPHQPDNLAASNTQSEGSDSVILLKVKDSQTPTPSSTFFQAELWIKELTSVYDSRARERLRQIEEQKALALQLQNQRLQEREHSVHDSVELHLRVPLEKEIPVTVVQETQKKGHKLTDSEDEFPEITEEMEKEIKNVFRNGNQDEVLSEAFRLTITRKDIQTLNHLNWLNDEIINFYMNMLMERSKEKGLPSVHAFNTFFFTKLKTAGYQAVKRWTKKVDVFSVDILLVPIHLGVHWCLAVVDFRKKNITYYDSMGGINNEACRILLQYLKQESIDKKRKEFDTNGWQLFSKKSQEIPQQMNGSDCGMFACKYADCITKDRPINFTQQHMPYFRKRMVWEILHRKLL

[25] = target: T5, Sentrin-specific protease 1; assay: Dose response confirmation of small molecule inhibitors of the catalytic domain of the SUMO protease, SENP1 in a FRET assay.; format: functional; conditions: read-out: IC50_Mean

COc1ccc(-c2ccc(-c3nc4ccc(C)cn4c3NC3CCCCC3)cc2OC)cc1
IC50 (Beta-galactosidase): 77.5 µM (inactive)

Cc1ccc(Nc2nc(Nc3ccc(C)cc3)nc(SC3=NCCS3)n2)cc1
EC50 [1]: > 120 µM (not active) | EC50 [2]: > 120 µM (not active) | EC50 (H4): 17.6 µM (active) | IC50 [3]: 28.6 µM (active) | IC50 [4]: 53.6 µM (active)

CCOC(=O)c1cnc(SCCc2ccccc2)nc1N
EC50 [5]: > 67.5 µM (inactive)

Cc1ccc(-n2nc3c(SCCN4CCOCC4)nnc(C)c3c2C)cc1
IC50 (Major prion protein): 12.8 µM (inactive) | IC50 (cells [6]): > 138 µM (inactive)

COc1ccc(CNCc2ccc(OC)c3ccccc23)cc1
IC50 [7]: > 10 µM (inactive)

NC(=S)c1cn([C@@H]2O[C@H](CO)[C@@H](O)[C@H]2O)c2ncnc(N)c12
IC50 [8]: 0.42 µM (active) | IC50 [9]: 1.96 µM (active) | AC50 [10]: 0.158 µM (active) | IC50 (Melanocortin receptor 4): > 64.6 µM (inactive) | IC50 [11]: > 66 µM (inactive) | IC50 [12]: > 66 µM (inactive) | IC50 [13]: > 64.6 µM (inactive) | AC50 [14]: < 0.26 µM (active) | IC50 (Galanin receptor type 3): 1.01 µM (active) | EC50 (cells [15]): > 29.9 µM (inactive) | AC50 [16]: 0.344 µM (active) | AC50 [17]: < 0.26 µM (active) | AC50 (Paired box protein Pax-8): 0.294 µM (active) | AC50 [18]: < 0.26 µM (active) | AC50 [19]: < 0.26 µM (active)

Cn1c(=O)c2cc(NC(=S)NC3CCCCC3)ccc2n1C/C=C/c1ccccc1
AC50 [20]: > 100 µM (inactive)

C[C@@H]1CN([C@@H](C)CO)C(=O)c2cccc(NC(=O)c3ccncc3)c2O[C@H]1CN(C)CC1CCCCC1
AC50 [21]: 0.636 µM (active) | AC50 [14]: 0.4 µM (active) | AC50 [17]: 0.953 µM (active) | AC50 [19]: 1.96 µM (active) | AC50 [22]: 0.182 µM (active) | IC50 [23]: 0.74 µM (active)

CC(=O)Nc1cc(-c2ccc(N3CCN(C)CC3)cc2)cn2c(-c3ccccc3)cnc12
IC50 [24]: 24.1 µM (inactive) | IC50 [25]: 12.2 µM (active)
